Square brackets hold non-standard residues; d marks the D form. * marks the point of attachment. 2Nal = N[C@@H](Cc1ccc2ccccc2c1)C(=O)O; Propionyl = CCC(=O)*; Sar = CNCC(=O)O
Columns and labels:
Dog = assay: Maximum platelet elevation relative to baseline in normal healthy dogs, single escalating doses; format: in vivo; set-up: key to pharmacodynamics (PD) effect class of the dose (beneficial effects on survival): **: large pharmacodynamics (PD) effect; *: modest effect; conditions: for Dog Max Platelet Ratio: TOX6985; for maximum platelet elevation: canine
Source text: The ratio of the maximum platelet counts to the baseline platelet counts following single escalating doses of RWJ-800088 to mice, rats, dogs, rhesus monkeys and human healthy volunteers is shown in Table 5. The dose required to achieve a 2-3.5-fold elevation in humans is ˜100-fold lower compared to mice, ˜1,000-fold lower compared to rats and >10,000-fold lower compared to canines and NHPs. […] The species differences in potency has been described for other TPO mimetics in the literature and is attributed to differences in receptor affinity (Erickson-Miller C L, et al. Discovery and characterization of a selective, nonpeptidyl thrombopoietin receptor agonist. Exp. Hematol. 2005; 33:85-93). […] It is discovered that the dose of RWJ-800088 that produces a survival benefit and protects against vascular and organ injury is the dose that produces a 2-4 fold elevation of platelets (Table 6).

[1] = tested on: C57BL/6 mice exposed to TBI; assay: 30-day survival after TBI in C57BL/6 mice; format: in vivo, mouse
Source text: Total Body Irradiation (TBI). Mice were irradiated bilaterally in the Cobalt-60 gamma-irradiation facility at the AFRRI. These animals were placed in well-ventilated plexiglass chambers made specifically for irradiating mice. An alanine/Electron Spin Resonance (ESR) dosimetry system (American Society for Testing and Material Standard E 1607) was used to measure the dose rates in the cores of acrylic phantoms (3 inches long and 1 inch in diameter) located in all empty slots of the exposure rack in the plexiglass chamber. ESR signals were measured with a calibration curve based on standard calibration dosimeters provided by the National Institute of Standard and Technology (NIST, Gaithersburg, Md.). The calibration curve was verified by inter-comparison with the National Physical Laboratory (NPL) in the United Kingdom. The corrections applied to the measured dose rates in phantoms were for decay of the Co-60 source and for a small difference in mass-energy absorption coefficients for water and soft tissue at the Co-60 energy level. Kaplan-Meier survival curves were plotted using GraphPad software; and trend in survival is compared between vehicle and drug-treated group.
The survival efficacy of RWJ-800088 was tested in C57BL/6 (another strain of mice with different radiation sensitivity compared to CD2F1) in males and females. […] All animals in saline treated groups (males and females) died whereas there was no mortality in RWJ-800088 treated groups 30 days post-TBI. […] All animals in saline treated groups died whereas there was 92% survival observed in the RWJ-800088 (24 h pre-TBI) treated group 30 days post-TBI.
To confirm the survival benefit provided by RWJ-800088 administration following TBI in another mouse strain with difference in radiation sensitivity, C57BL/6 male mice were irradiated at 8.0 Gy (˜LD70/30) followed by administration of a single subcutaneous dose of RWJ-800088 (1 mg/kg) at 24 h after TBI. The percentage of mice surviving on day 30 post-TBI for the RWJ-800088 treated group was 83% and for the saline treated group it was only 13% (2).

[2] = tested on: CD2F1 male mice exposed to supra-lethal TBI; assay: Survival and recovery from gastrointestinal injury at supra-lethal TBI; format: in vivo, mouse
Experimental: Data are expressed as mean±Standard error of mean (SEM). Irradiated TPOm group compared with saline treated group, statistical significance by Student T test (p≤0.0001)
Bacterial translocation was determined as bacterial load in liver and spleen tissue as a result of radiation injury to the intestines and was quantified by real-time polymerase chain reaction (PCR) using the 16S rRNA gene consensus sequence. Naïve jejunum serves as a positive control and naïve spleen and liver serve as negative controls/baseline values. Data are expressed as mean±Standard error of mean (SEM). Irradiated TPOm group compared with saline treated group, statistical significance by Student T test (p≤0.0001).
Data are expressed as mean±Standard error of mean (SEM). Irradiated TPOm group compared with saline treated group, statistical significance by Student T test (p≤0.0001). Serum amaloyd A (SAA) and pro-calcitonin (PCT), sepsis markers, were both measured by ELISA.
Jejunum samples were collected at days 1, 3, 7, 9 post-TBI. Representative sections were stained with H&E. There was a 100% increased survival in the RWJ-800088 treated mice compared to the saline treated animals (FIG. 9A—Kaplan Meier plot).

[3] = tested on: female rats exposed to LD70 total body gamma radiation; assay: Rat whole body irradiation study; format: in vivo
Experimental: FIGS. 16A-B show the percent survival in female SD Rats (n=8/group) administered RWJ-800088 (TPOm) at different time points and dose levels—FIG. 16A: 3000 μg/kg at 6, 24 and 48 hours post TBI (7.18 Gy), and FIG. 16B: 300 and 3000 μg/kg at 24 hours post TBI (7.18 Gy).
RWJ-800088 was administered at a 3000 μg/kg dose by SC injection to female rats (n=8) at 6, 24, or 48 hours and additionally 300 μg/kg dose at 24 hours after exposure to an LD70 total body dose of gamma radiation (Gammacell 3000 irradiator).

[4] = tested on: Rats, prostate irradiation; assay: Prostate irradiation in rats (Table 6); format: in vivo, rat; conditions: 3 mg/kg, whole wrapped cell: Protection of vascular size and function
[5] = C57BL/6 Both genders, 7.76 Gy, 0.3 mg/kg single dose, Post 6 hr
[6] = C57BL/6 Both genders, 7.76 Gy, 0.3 mg/kg single dose, Post 24 hr
[7] = C57BL/6 Both genders, 7.96 Gy, 0.3 mg/kg single dose, Post 6 hr
[8] = C57BL/6 Both genders, 7.96 Gy, 0.3 mg/kg single dose, Post 24 hr
[9] = C57BL/6 F, 8.75 Gy, 3 mg/kg single dose, Pre −24 hr
[10] = C57BL/6 M, 8.75 Gy, 3 mg/kg single dose, Pre −24 hr

**Q.** How did the “Average of the Maximum Platelet Elevation/Baseline Platelet Counts” value (Dog; Dog, dose 10000 μg/kg) turn out when “methoxypolyethyleneglycol20000-propionyl-L-Isoleucyl-L-Glutamyl-Glycyl-L-Prolyl-L-Threonyl-L-Leucyl-L-Arginyl-L-Glutaminyl-L-2-Naphthylalanyl-L-Leucyl-L-Alanyl-L-Alanyl-L-Arginyl-Sarcosyl-Ne-(methoxypolyethyleneglycol20000-propionyl-L-Isoleucyl-L-Glutamyl-Glycyl-L-Prolyl-L-Threonyl-L-Leucyl-L-Arginyl-L-Glutaminyl-L-2-Naphthylalanyl-L-Leucyl-L-Alanyl-L-Alanyl-L-Arginyl-Sarcosyl-)-Lysinamide ({mPEG 20 kDa-Propionyl}-IEGPTLRQ[2Nal]LAAR[Sar]K-NH2; also: dimer: second identical mPEG-propionyl chain on Lys Nε of C-terminal lysinamide) [RWJ-800088]” was run?
**A.** Its value is 1.7.

**Q.** And the “pharmacodynamics (PD) effect class of the dose (beneficial effects on survival)” value (Dog; Dog, dose 10000 μg/kg)?
**A.** Its value is “*”.

**Q.** And the “Dog Max Platelet Ratio” value (Dog; dose 300 μg/kg)?
**A.** The value was 1.0 ± 0.3.

**Q.** What about the “Dog Max Platelet Ratio” value (Dog; dose 3000 μg/kg) of the same substance?
**A.** Its value is 1.4 ± 0.5.

**Q.** And the “Dog Max Platelet Ratio” value (Dog; dose 10000 μg/kg)?
**A.** Its value is 1.7 ± 0.5.

**Q.** What about the maximum platelet elevation (Dog) of the same substance?
**A.** Its maximum platelet elevation is ~7.7 fold.

**Q.** And the maximum platelet elevation (Dog; listed as TPOm)?
**A.** The maximum platelet elevation was ~1.7 fold.

**Q.** And the “Survival Differential (Treatment-Vehicle)” value (“Survival Differential” for short) [1, 5]?
**A.** Its value is 25%.

**Q.** What about the Survival treatment [1, 5] of the same substance?
**A.** Its Survival treatment is 100%.

**Q.** What about the “Survival Differential” value [1, 6] of the same substance?
**A.** The value was 15%.

**Q.** What about the Survival treatment [1, 6] of the same substance?
**A.** The Survival treatment was 90%.

**Q.** And the “Survival Differential” value [1, 7]?
**A.** The value was 45%.

**Q.** And the Survival treatment [1, 7]?
**A.** Its Survival treatment is 100%.

**Q.** What about the “Survival Differential” value [1, 8] of the same substance?
**A.** Its value is 20%.

**Q.** What about the Survival treatment [1, 8] of the same substance?
**A.** Its Survival treatment is 75%.

**Q.** What about the “Survival Differential” value [1, 9] of the same substance?
**A.** The value was 100%.

**Q.** And the Survival treatment [1, 9]?
**A.** Its Survival treatment is 100%.

**Q.** What about the “Survival Differential” value [1, 10] of the same substance?
**A.** The value was 100%.

**Q.** And the Survival treatment [1, 10]?
**A.** Its Survival treatment is 100%.

**Q.** And the “mortality 30 days post-TBI” value ([1]; C57BL/6 male and female, 8.75 Gy (LD100/30), 3 mg/kg 24 h prior to irradiation)?
**A.** Its value is “no mortality”.

**Q.** And the “percentage of mice surviving on day 30 post-TBI” value ([1]; C57BL/6 male, 8.0 Gy (~LD70/30), single SC dose 1 mg/kg at 24 h after TBI)?
**A.** Its value is 83%.

**Q.** And the “bacterial translocation to the liver and spleen” value ([2]; 1 mg/kg 24 hours prior to TBI (12.5 Gy per FIG. 10 legend))?
**A.** The value was “significantly reduced”.

**Q.** And the “number of viable crypts in jejunum” value ([2]; 11 Gy, 1 mg/kg 24 h prior to TBI (FIG. 9C))?
**A.** Its value is “significant increase”.

**Q.** What about the “increased survival compared to saline treated animals” value ([2]; 11 Gy, 1 mg/kg 24 h prior to TBI, 8 mice/group/time point (FIG. 9A)) of the same substance?
**A.** Its value is 100%.

**Q.** And the “circulating sepsis biomarkers, serum amyloid A and procalcitonin” value ([2]; nine days post-TBI 11 Gy, 1 mg/kg 24 hours prior to TBI)?
**A.** Its value is “significant reduction”.

**Q.** What about the Effects ([3]; Rats, whole body irradiation, whole wrapped cell: Enhanced survival, mitigation against thrombocytopenia, anemia) of the same substance?
**A.** Its Effects is “Enhanced survival,”.

**Q.** What about the “survival vs vehicle and RWJ-800088 at 48 hours post-irradiation” value ([3]; female rats, 3000 μg/kg SC at 6 and 24 hours post TBI (FIG. 16A)) of the same substance?
**A.** The value was “significantly higher”.

**Q.** And the “survival, 3000 μg/kg compared with 300 μg/kg” value ([3]; female rats, 24 hours post irradiation (FIG. 16B))?
**A.** Its value is “substantially increased”.

**Q.** What about the Effects [4] of the same substance?
**A.** Its Effects is “Protection of vascular size”.

Reference: patent US20220168392A1 (priority 2019, published 2022)
